These results are taken from US12421229B2, “Hydropyrido[1,2-α]pyrazine compounds for the treatment of autoimmune disease” (Hoffmann-La Roche Inc., priority 2019, dated 2025).

For the test, the target named is T1, human TLR9 (Homo sapiens, UniProt Q9NR96).
T1 construct: host or cells: HEK293 (HEK-Blue hTLR9)
T1 sequence (Q9NR96 26-1032): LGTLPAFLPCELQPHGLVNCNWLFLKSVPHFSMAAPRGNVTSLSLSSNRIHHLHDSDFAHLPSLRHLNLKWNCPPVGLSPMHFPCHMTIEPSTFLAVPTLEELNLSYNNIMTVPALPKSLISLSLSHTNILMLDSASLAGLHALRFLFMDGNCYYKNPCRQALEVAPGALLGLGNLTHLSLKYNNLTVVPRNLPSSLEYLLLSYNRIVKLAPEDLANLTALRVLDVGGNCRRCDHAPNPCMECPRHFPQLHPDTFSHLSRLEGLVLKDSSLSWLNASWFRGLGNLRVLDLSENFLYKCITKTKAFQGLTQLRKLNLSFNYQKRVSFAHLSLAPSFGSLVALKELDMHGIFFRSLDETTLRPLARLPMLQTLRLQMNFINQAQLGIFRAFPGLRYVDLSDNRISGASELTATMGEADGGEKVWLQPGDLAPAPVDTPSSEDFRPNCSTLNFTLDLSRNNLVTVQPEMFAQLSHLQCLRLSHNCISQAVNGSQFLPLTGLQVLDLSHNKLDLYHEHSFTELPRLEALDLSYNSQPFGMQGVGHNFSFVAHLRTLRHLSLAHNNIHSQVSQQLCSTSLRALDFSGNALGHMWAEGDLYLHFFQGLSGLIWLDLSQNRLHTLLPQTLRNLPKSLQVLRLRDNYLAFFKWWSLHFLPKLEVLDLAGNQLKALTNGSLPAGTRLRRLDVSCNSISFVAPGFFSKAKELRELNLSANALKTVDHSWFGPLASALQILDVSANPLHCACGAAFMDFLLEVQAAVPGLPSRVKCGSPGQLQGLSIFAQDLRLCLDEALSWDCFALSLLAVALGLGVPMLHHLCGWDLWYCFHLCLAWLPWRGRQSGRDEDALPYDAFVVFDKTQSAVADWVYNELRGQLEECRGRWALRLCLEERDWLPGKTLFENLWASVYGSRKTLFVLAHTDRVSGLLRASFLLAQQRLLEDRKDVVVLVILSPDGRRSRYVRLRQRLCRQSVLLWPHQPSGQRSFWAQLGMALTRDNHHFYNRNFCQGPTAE
Put plainly: HEK293-Blue-hTLR-9 cells assay. It is filed as cell-based. Conditions: HEK293-Blue-hTLR9 cells, ODN2006 stimulation, 20 hrs, SEAP reporter; read-out: HEK/hTLR9 IC50. From the text: A stable HEK293-Blue-hTLR-9 cell line was purchased from InvivoGen (Cat. #: hkb-htlr9, San Diego, California, USA). These cells were originally designed for studying the stimulation of human TLR9 by monitoring the activation of NF-κB. A SEAP (secreted embryonic alkaline phosphatase) reporter gene was placed under the control of the IFN-β minimal promoter fused to five NF-κB and AP-1-binding sites. The SEAP was induced by activating NF-κB and AP-1 via stimulating HEK-Blue hTLR9 cells with TLR9 ligands. Therefore the reporter expression was declined by TLR9 antagonist under the stimulation of a ligand, such as ODN2006 (Cat. #: tlrl-2006-1, Invivogen, San Diego, California, USA), for incubation of 20 hrs. The cell culture supernatant SEAP reporter activity was determined using QUANTI-Blue™ kit (Cat. #: rep-qb1, Invivogen, San Diego, California, USA) at a wavelength of 640 nm, a detection medium that turns purple or blue in the presence of alkaline phosphatase.
HEK293-Blue-hTLR9 cells were incubated at a density of 250,000˜450,000 cells/mL in a volume of 170 μL in a 96-well plate in Dulbecco's Modified Eagle's medium (DMEM) containing 4.5 g/L glucose, 50 U/mL penicillin, […], 2 mM L-glutamine, 10% (v/v) heat-inactivated fetal bovine serum with addition of 20 μL test compound in a serial dilution in the presence of final DMSO at 1% and 10 μL of 20 uM ODN2006 in above DMEM, perform incubation under 37° C. in a CO2 incubator for 20 hrs. Then 20 μL of the supernatant from each well was incubated with 180 μL Quanti-blue substrate solution at 37° C. for 2 h and the absorbance was read at 620˜655 nm using a spectrophotometer. The signaling pathway that TLR9 activation leads to downstream NF-κB activation has been widely accepted, and therefore similar reporter assay was modified for evaluating TLR9 antagonist.

Molecules are shown by their SMILES. Where only a bound is given, the exact number is not on record here.

As for `[2H]c1ccc2c(N3C[C@@H]4C[C@H](Nc5ccc(C[C@H]6CNCCO6)cc5)CCN4[C@H](C)C3)ccc(C#N)c2n1` [Example 34, 5-[(4R,8R,9aS)-4-methyl-8-[4-[[(2S)-morpholin-2-yl]methyl]anilino]-1,3,4,6,7,8,9,9a-octahydropyrido[1,2-a]pyrazin-2-yl]-2-deuterio-quinoline-8-carbonitrile], the IC50 worked out at 57 nM.
With `C[C@@H]1CN(c2ccc(C#N)c3ncccc23)C[C@@H]2C[C@@H](Oc3ccc(N4CCNCC4)nc3)CCN21` [Example 16, 5-[(4R,8S,9aS)-4-methyl-8-[(6-piperazin-1-yl-3-pyridyl)oxy]-1,3,4,6,7,8,9,9a-octahydropyrido[1,2-a]pyrazin-2-yl]quinoline-8-carbonitrile] the figure was 37 nM; with `C[C@@H]1CN(c2ccc(C#N)c3ncccc23)C[C@H]2C[C@H](c3ccc(N4CCNCC4)nc3)CCN21` [Example 15, 5-[(4R,8R,9aR)-4-methyl-8-(6-piperazin-1-yl-3-pyridyl)-1,3,4,6,7,8,9,9a-octahydropyrido[1,2-a]pyrazin-2-yl]quinoline-8-carbonitrile], 84 nM.
The result for `C[C@@H]1CN(c2ccc(C#N)c3ncccc23)C[C@@H]2C[C@@H](c3ccc(C4CNCCO4)cc3)CCN21` (stereo partly drawn) [Example 24, 5-[(4R,8S,9aS)-4-methyl-8-(4-morpholin-2-ylphenyl)-1,3,4,6,7,8,9,9a-octahydropyrido[1,2-a]pyrazin-2-yl]quinoline-8-carbonitrile] reads 82 nM; that for `C[C@@H]1CN(c2ccc(C#N)c3ncccc23)C[C@@H]2C[C@H](c3ccc(N4CCNCC4)nc3)CCN21` (stereo in doubt) [Example 2, 5-[(4R,8R)-4-methyl-8-(6-piperazin-1-yl-3-pyridyl)-1,3,4,6,7,8,9,9a-octahydropyrido[1,2-a]pyrazin-2-yl]quinoline-8-carbonitrile], 81 nM.
With `C[C@@H]1CN(c2ccc(C#N)c3ncccc23)C[C@@H]2C[C@H](NCc3ccc(N4CCNCC4)cc3)CCN21` [Example 1, 5-[(4R,8R,9aS)-4-methyl-8-[(4-piperazin-1-ylphenyl)methylamino]-1,3,4,6,7,8,9,9a-octahydropyrido[1,2-a]pyrazin-2-yl]quinoline-8-carbonitrile] the figure was < 32 nM; with `C[C@@H]1CN(c2ccc(C#N)c3ncccc23)C[C@@H]2C[C@H](c3ccc(N4CCNCC4)nc3)CCN21` [Example 4, 5-[(4R,8R,9aS)-4-methyl-8-(6-piperazin-1-yl-3-pyridyl)-1,3,4,6,7,8,9,9a-octahydropyrido[1,2-a]pyrazin-2-yl]quinoline-8-carbonitrile], 86 nM; with `C[C@@H]1CN(c2ccc(C#N)c3ncccc23)C[C@@H]2C[C@@H](NCc3ccc(N4CCNCC4)cc3)CCN21` [Example 17, 5-[(4R,8S,9aS)-4-methyl-8-[(4-piperazin-1-ylphenyl)methylamino]-1,3,4,6,7,8,9,9a-octahydropyrido[1,2-a]pyrazin-2-yl]quinoline-8-carbonitrile], < 32 nM.
`[2H]c1ccc2c(N3C[C@@H]4C[C@@H](N5CC(c6ccc(N7C[C@@H](N)[C@H](OC)C7)cc6)C5)CCN4[C@H](C)C3)ccc(C#N)c2n1` [Example 36]: the IC50 turned out to be 32 nM.
The result for `CO[C@@H]1CN(c2ccc(C3CN([C@@H]4CCN5[C@@H](C4)CN(c4ccc(C#N)c6ncccc46)C[C@H]5C)C3)cc2)C[C@H]1N` [Example 30, 5-[(4R,8R,9aS)-8-[3-[4-[(3R,4R)-3-amino-4-methoxy-pyrrolidin-1-yl]phenyl]azetidin-1-yl]-4-methyl-1,3,4,6,7,8,9,9a-octahydropyrido[1,2-a]pyrazin-2-yl]quinoline-8-carbonitrile] reads 78 nM.
With `C[C@@H]1CN(c2ccc(C#N)c3ncccc23)C[C@@H]2C[C@H](Nc3ccc(C[C@@H]4CNCCO4)cc3)CCN21` [Example 21, 5-[(4R,8R,9aS)-4-methyl-8-[4-[[(2R)-morpholin-2-yl]methyl]anilino]-1,3,4,6,7,8,9,9a-octahydropyrido[1,2-a]pyrazin-2-yl]quinoline-8-carbonitrile], the IC50 worked out at 86 nM.
The result for `CO[C@H]1CN(c2ccc(O[C@H]3CCN4[C@@H](C3)CN(c3ccc(C#N)c5ncccc35)C[C@H]4C)cn2)C[C@H]1N` [Example 28, 5-[(4R,8S,9aS)-8-[[6-[(3R,4S)-3-amino-4-methoxy-pyrrolidin-1-yl]-3-pyridyl]oxy]-4-methyl-1,3,4,6,7,8,9,9a-octahydropyrido[1,2-a]pyrazin-2-yl]quinoline-8-carbonitrile] reads 44 nM; that for `C[C@@H]1CN(c2ccc(C#N)c3ncccc23)C[C@@H]2C[C@H](c3ccc(N4CC(N)C4)nc3)CCN21` [Example 7, 5-[(4R,8R,9aS)-8-[6-(3-aminoazetidin-1-yl)-3-pyridyl]-4-methyl-1,3,4,6,7,8,9,9a-octahydropyrido[1,2-a]pyrazin-2-yl]quinoline-8-carbonitrile], 184 nM.
